Data: US8067582B2 (Bristol-Myers Squibb Company, priority 2007, dated 2011)
Where two headings read alike, the source gives them in different places.

Columns and labels:
[1] = molecular target: T1, androgen receptor (AR) (Homo sapiens, UniProt P10275); test: MDA-MB-453 Androgen Receptor Transactivation Assay (PSA-Luc reporter, 3 nM DHT); assay type: cell-based; conditions: MDA-MB-453 cells, antagonism in presence of 3 nM DHT, 48 hour incubation
T1 sequence (P10275 1-920): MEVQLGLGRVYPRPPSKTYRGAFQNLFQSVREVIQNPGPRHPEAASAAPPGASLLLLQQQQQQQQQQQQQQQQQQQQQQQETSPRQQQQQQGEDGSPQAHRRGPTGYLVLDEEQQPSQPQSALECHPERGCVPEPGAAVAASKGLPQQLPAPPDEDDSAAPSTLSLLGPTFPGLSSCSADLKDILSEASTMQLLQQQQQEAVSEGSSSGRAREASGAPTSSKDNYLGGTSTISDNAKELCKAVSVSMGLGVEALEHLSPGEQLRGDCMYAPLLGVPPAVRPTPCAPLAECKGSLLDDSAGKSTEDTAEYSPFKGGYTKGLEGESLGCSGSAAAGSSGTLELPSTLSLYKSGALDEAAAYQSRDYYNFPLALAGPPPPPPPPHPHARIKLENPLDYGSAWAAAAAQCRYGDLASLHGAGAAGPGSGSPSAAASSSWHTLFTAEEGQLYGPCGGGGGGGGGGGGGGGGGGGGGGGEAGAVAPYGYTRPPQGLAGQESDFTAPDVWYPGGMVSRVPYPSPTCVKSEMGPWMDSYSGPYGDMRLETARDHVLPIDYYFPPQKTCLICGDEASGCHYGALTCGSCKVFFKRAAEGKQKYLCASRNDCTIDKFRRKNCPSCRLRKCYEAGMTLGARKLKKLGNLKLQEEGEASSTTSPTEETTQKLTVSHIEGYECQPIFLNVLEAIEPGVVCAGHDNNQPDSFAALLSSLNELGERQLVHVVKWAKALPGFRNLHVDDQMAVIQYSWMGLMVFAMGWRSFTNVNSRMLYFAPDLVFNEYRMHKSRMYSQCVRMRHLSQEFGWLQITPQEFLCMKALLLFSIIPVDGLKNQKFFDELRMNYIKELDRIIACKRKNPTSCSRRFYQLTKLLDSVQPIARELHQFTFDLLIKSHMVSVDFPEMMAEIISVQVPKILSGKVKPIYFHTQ
From the text: Compounds can be tested in a cell based transactivation assay used to measure the antagonism of androgen receptor (AR) transcriptional activity. The transactivation assay provides a means of identifying antagonists that inhibit the effects of the native hormone dihydrotestosterone (DHT). […] The pGL3 PSA-Luc reporter plasmid is comprised of the cDNA for the firefly luciferase gene and the upstream promoter sequences containing the androgen response elements (AREs) of the prostate specific antigen (PSA). This plasmid functions as a reporter for the transcription-modulating activity of the AR. In order to detect antagonists, the transactivation assay is conducted in the presence of constant concentration of the natural AR hormone (DHT) to induce a defined reporter signal. Addition of increasing concentrations of the suspected antagonist will decrease the reporter signal (luciferase activity).
MDA-MB-453 and 22 RV1 cells were maintained in DMEM (Cellgro, Cat. #10-014-CM) or RPMI 1640 (Gibco Cat. #11875-085) respectively and supplemented with 10% FBS (Invitrogen/GIBCO Life Science). Cells were bulk transfected in flasks with 1.3 ug/ml pGL3 PSA-Luc plasmid by using the Lipofectamine 2000 Reagent (Invitrogen, Cat. #11668-019) and serum-free Opti-MEM I media (Invitrogen, Cat #31985-070) according to the manufacturer's optimized conditions. Transfection was conducted at 37° C. with 5% CO2 for 16-18 hours. Following transfection, cells are washed, treated with trypsin, counted, and seeded in a 96-well plate at 30,000 cells per well in DMEM containing 10% Charcoal/Dextran Treated Fetal Bovine Serum (Gibco Cat. #11054-020) for MDA-MB-453 cells or RPMI 1640 (Gibco Cat. #110835) containing 10% FBS (Invitrogen/GIBCO Life Science) for 22 RV1 cells.
Following transfection, cells were incubated in the absence (blank) or presence (control) of 3 nM DHT (Sigma, Cat. #A-8380) and in the presence or absence of the standard antiandrogen bicalutamide or test compounds ranging in concentrations from 10^−10 to 10^−5M. Duplicates were used for each sample. The compound dilutions were performed by the Tecan Genesis (Tecan, Triangle Park, N.C.). After a 48 hour incubation, luciferase activity was measured using the Steady-Glo Luciferase Assay System (Promega, Cat. #E2550) according to manufacturer's specifications and luminescence was measured on a Packard TopCount (PerkinElmer). For each luciferase sample reading, the percent control (in absence of compounds) was calculated as: % Control=100×[averagesample−averageblank]/[averagecontrol−averageblank] Data was plotted and the IC50 value was defined as the concentration of compound that inhibited 50% of the luciferase activity for the controls.
Compounds described herein were tested in the AR transactivation assay described immediately above, using MDA-MB-453 cells.

[2] = test system: immature castrated male rats; test: Immature Rat Prostate Weight (IRPW) Assay; assay type: in vivo, rat (Sprague-Dawley); conditions: Rattus norvegicus, 96 h, read-out: IRPW SV/FB (% control)
[3] = immature castrated rats, 3 mpk PO QD × 4 days

| SMILES | IC50 ([1]; read-out: IC50) [nM] | response vs control in vivo at 3 mg/kg [2, 3] [%] | IC50 [1] [nM] | response vs control in vivo at 3 mg/kg ([2]; po) [%] |
| --- | --- | --- | --- | --- |
| C#Cc1cc(N2C(=O)[C@H]3[C@H]4[C@@H]2OCC[C@@]42O[C@]3(C)C[C@@H]2O)ccc1C#N [Example 62, 2-Ethynyl-4-((1R,2S,4R,5S,8S,12R)-2-hydroxy-4-methyl-6-oxo-9,13-dioxa-7-azatetracyclo[6.3.1.1^1,4.0^5,12]tridec-7-yl)benzonitrile] | 1920 | 108 |  |  |
| C[C@@]12C[C@H](O)[C@]3(CCO[C@H]4[C@@H]3[C@@H]1C(=O)N4c1ccc(C#N)c(Br)c1)O2 [Example 66, 2-Bromo-4-((1R,2S,4R,5S,8S,12R)-2-hydroxy-4-methyl-6-oxo-9,13-dioxa-7-azatetracyclo[6.3.1.1^1,4.0^5,12]tridec-7-yl)benzonitrile] | 195 | 38 |  |  |
| C[C@@]12C[C@H](O)[C@]3(CCO[C@H]4[C@@H]3[C@@H]1C(=O)N4c1ccc(Cl)c(Cl)c1)O2 [Example 113, (1R,2S,4R,5S,8S,12R)-7-(3,4-dichlorophenyl)-2-hydroxy-4-methyl-9,13-dioxa-7-azatetracyclo[6.3.1.1^1,4.0^5,12]tridecan-6-one] | 1340 | 68 |  |  |
| C[C@@]12C[C@H](O)[C@]3(CCO[C@H]4[C@@H]3[C@@H]1C(=O)N4c1ccc(C#N)c(Cl)c1)O2 [Example 119, 2-Chloro-4-((1R,2S,4R,5S,8S,12R)-2-hydroxy-4-methyl-6-oxo-9,13-dioxa-7-azatetracyclo[6.3.1.1^1,4.0^5,12]tridec-7-yl)benzonitrile] |  |  | 183 | 39 |
| C[C@@]12C[C@H](O)[C@]3(CCO[C@H]4[C@@H]3[C@@H]1C(=O)N4c1ccc(Cl)c(C#N)c1)O2 [Example 120, 2-Chloro-5-((1R,2S,4R,5S,8S,12R)-2-hydroxy-4-methyl-6-oxo-9,13-dioxa-7-azatetracyclo[6.3.1.1^1,4.0^5,12]tridec-7-yl)benzonitrile] | 1650 | 80 |  |  |
| Cc1cc(N2C(=O)[C@H]3[C@H]4[C@@H]2OCC[C@@]42O[C@]3(C)C[C@@H]2O)ccc1C#N [Example 122, 4-((1R,2S,4R,5S,8S,12R)-2-hydroxy-4-methyl-6-oxo-9,13-dioxa-7-azatetracyclo[6.3.1.1^1,4.0^5,12]tridec-7-yl)-2-methylbenzonitrile] | 1710 | 90 |  |  |
| C[C@]12O[C@@]3(CCO[C@H]4[C@@H]3[C@@H]1C(=O)N4c1cc(F)c(C#N)c(C(F)(F)F)c1)C[C@H]2O [Example 139, 2-Fluoro-4-((1S,3R,4S,5S,8S,12R)-3-hydroxy-4-methyl-6-oxo-9,13-dioxa-7-azatetracyclo[6.3.1.1^1,4.0^5,12]tridec-7-yl)-6-(trifluoromethyl)benzonitrile] |  |  | 60 | 35 |
| C[C@]12O[C@@]3(CCO[C@H]4[C@@H]3[C@@H]1C(=O)N4c1ccc(C#N)c(C(F)(F)F)c1)C[C@@H]2O [Example 156, 4-((1S,3S,4S,5S,8S,12R)-3-hydroxy-4-methyl-6-oxo-9,13-dioxa-7-azatetracyclo[6.3.1.1^1,4.0^5,12]tridec-7-yl)-2-(trifluoromethyl)benzonitrile] |  |  | 304 | 64 |
| CCS(=O)(=O)N[C@H]1C[C@@]2(C)O[C@@]13CCO[C@H]1[C@@H]3[C@@H]2C(=O)N1c1ccc(C#N)c(Br)c1 [Example 179, N-((1R,2S,4R,5S,8S,12R)-7-(3-Bromo-4-cyanophenyl)-4-methyl-6-oxo-9,13-dioxa-7-azatetracyclo[6.3.1.1^1,4.0^5,12]tridec-2-yl)ethanesulfonamide] | 141 | 31 |  |  |
| C[C@@]12C[C@H](NS(=O)(=O)CC(F)(F)F)[C@]3(CCO[C@H]4[C@@H]3[C@@H]1C(=O)N4c1ccc(C#N)c(Cl)c1)O2 [Example 185, N-((1R,2S,4R,5S,8S,12R)-7-(3-Chloro-4-cyanophenyl)-4-methyl-6-oxo-9,13-dioxa-7-azatetracyclo[6.3.1.1^1,4.0^5,12]tridec-2-yl)-2,2,2-trifluoroethanesulfonamide] |  |  | 147 | 31 |
| CCS(=O)(=O)N[C@H]1C[C@@]2(C)O[C@@]13CCO[C@H]1[C@@H]3[C@@H]2C(=O)N1c1cc(Cl)c(C#N)c(Cl)c1 [Example 186, N-((1R,2S,4R,5S,8S,12R)-7-(3,5-Dichloro-4-cyanophenyl)-4-methyl-6-oxo-9,13-dioxa-7-azatetracyclo[6.3.1.1^1,4.0^5,12]tridec-2-yl)ethanesulfonamide] |  |  | 220 | 39 |
| CCS(=O)(=O)N[C@H]1C[C@@]2(C)O[C@@]13CCO[C@H]1[C@@H]3[C@@H]2C(=O)N1c1ccc(C#N)c(OC(F)(F)F)c1 [Example 188, N-((1R,2S,4R,5S,8S,12R)-7-(4-Cyano-3-(trifluoromethoxy)phenyl)-4-methyl-6-oxo-9,13-dioxa-7-azatetracyclo[6.3.1.1^1,4.0^5,12]tridec-2-yl)ethanesulfonamide] | 383 | 33 |  |  |
| COC(=O)N[C@@H]1C[C@@]23CCO[C@H]4[C@@H]2[C@H](C(=O)N4c2ccc(C#N)c(C(F)(F)F)c2)[C@]1(C)O3 [Example 207, Methyl ((1R,3R,4S,5S,8S,12R)-7-(4-cyano-3-(trifluoromethyl)phenyl)-4-methyl-6-oxo-9,13-dioxa-7-azatetracyclo[6.3.1.1^1,4.0^5,12]tridec-3-yl)carbamate] |  |  | 54 | 37 |
| COC(=O)N[C@@H]1C[C@@]23CCO[C@H]4[C@@H]2[C@H](C(=O)N4c2cc(Cl)c(C#N)c(Cl)c2)[C@]1(C)O3 [Example 208, Methyl ((1R,3R,4S,5S,8S,12R)-7-(3,5-dichloro-4-cyanophenyl)-4-methyl-6-oxo-9,13-dioxa-7-azatetracyclo[6.3.1.1^1,4.0^5,12]tridec-3-yl)carbamate] |  |  | 118 | 37 |
| CCC(=O)N[C@H]1C[C@@]23CCO[C@H]4[C@@H]2[C@H](C(=O)N4c2ccc(C#N)c(C(F)(F)F)c2)[C@]1(C)O3 [Example 236, N-((1R,3S,4S,5S,8S,12R)-7-(4-cyano-3-(trifluoromethyl)phenyl)-4-methyl-6-oxo-9,13-dioxa-7-azatetracyclo[6.3.1.1^1,4.0^5,12]tridec-3-yl)propanamide] |  |  | 104 | 62 |
